Values of other authors, collected in article PMC4336743, “Improved production of sublancin via introduction of three characteristic promoters into operon clusters responsible for this novel distinct glycopeptide biosynthesis” (Microbial Cell Factories, 2015).

Columns and labels:
proteinases, peptidases = system: proteinases, peptidases
Experimental: Proteolytic susceptibility of sublancin should also be considered in various applications such as in treating bacterial–mediated mastitis or bacterial–mediated gastroenteritis. Therefore, a number of bacterial proteases and gastrointestinal digestive enzymes, e.g., P. aeruginosa elastase and S. aureus V8 protease, pepsin and trypsin would certainly be encountered. […] All experiments were performed in vitro; therefore in vivo studies should be conducted prior to clinical ap ...

S. aureus = system: S. aureus
Experimental: Antibacterial activity and cytotoxicity of sublancin were also evaluated. […] These findings are consistent with previously reported study and is almost equal to that of nisin that is a common and typical antimicrobial peptide from Lactococcus lactis, and is widely used in clinical and food preservation applications, with MIC of 0.5 mg/L against S. aureus.

Substance | antimicrobial potency after exposure to proteinases, peptidases and heat (proteinases, peptidases) | MIC against S. aureus (S. aureus)
Bovicin HC5 | remarkable antimicrobial potency reduction | –
nisin | – | 0.5 µg/mL
